Earlier results, collected in US20140213664A1, “PROCESSES, PRODUCTS AND METHODOLOGIES FOR MAKING AND USING NOVEL BIOADVANTAGED SWEETENERS” (priority 2013, published 2014).

Tests used:
[1] = test system: STZ-induced diabetic rats
[2] = injected hypodermically

Row | SMILES | HDL-cholesterol [1] | antihyperglycemic effect [1] | total cholesterol and triglyceride levels [1] | glycosuria [2]
1 | O=CC=Cc1ccccc1 [Cinnamaldehyde] | increasing | significant antihyperglycemic effect | lowering | 
2 | O=C(CCc1ccc(O)cc1)c1c(O)cc(O)cc1O[C@@H]1O[C@H](CO)[C@@H](O)[C@H](O)[C@H]1O [Phlorizin] |  |  |  | produces glycosuria
